For assay [1], the target named is T1, FAAH (Mus musculus, UniProt O08914).
T1 construct: rat or mouse brain homogenates as the enzyme source; from tissue; host or cells: mouse brain (minus cerebellum), male B6CBAF1/J, washed membrane homogenate
T1 sequence (O08914 1-579): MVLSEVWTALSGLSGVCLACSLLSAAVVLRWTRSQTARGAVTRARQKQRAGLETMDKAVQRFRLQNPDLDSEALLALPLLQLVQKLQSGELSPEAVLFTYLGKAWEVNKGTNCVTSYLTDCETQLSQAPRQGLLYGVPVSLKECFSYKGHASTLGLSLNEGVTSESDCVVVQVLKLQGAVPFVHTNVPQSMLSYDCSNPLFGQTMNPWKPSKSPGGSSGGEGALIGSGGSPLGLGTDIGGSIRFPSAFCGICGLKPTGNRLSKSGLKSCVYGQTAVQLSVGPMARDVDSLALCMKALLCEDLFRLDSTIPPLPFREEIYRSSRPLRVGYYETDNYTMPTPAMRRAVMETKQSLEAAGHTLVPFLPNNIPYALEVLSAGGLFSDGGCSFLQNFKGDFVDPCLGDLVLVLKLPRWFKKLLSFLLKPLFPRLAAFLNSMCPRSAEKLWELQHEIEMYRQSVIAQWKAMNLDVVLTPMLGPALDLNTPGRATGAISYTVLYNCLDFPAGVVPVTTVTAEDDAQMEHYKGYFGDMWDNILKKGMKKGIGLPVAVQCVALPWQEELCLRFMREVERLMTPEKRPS
Nature of the assay: FAAH assay: [3H]AEA hydrolysis by mouse brain homogenates. The class given is biochemical. Conditions: 0.5 µM [3H]AEA.

The target in assay [2] is T2, FAAH (Rattus norvegicus, UniProt P97612).
T2 construct: rat or mouse brain homogenates as the enzyme source; from tissue; host or cells: rat brain (minus cerebellum), Wistar or Sprague-Dawley, washed membrane homogenate
T2 sequence (P97612 1-579): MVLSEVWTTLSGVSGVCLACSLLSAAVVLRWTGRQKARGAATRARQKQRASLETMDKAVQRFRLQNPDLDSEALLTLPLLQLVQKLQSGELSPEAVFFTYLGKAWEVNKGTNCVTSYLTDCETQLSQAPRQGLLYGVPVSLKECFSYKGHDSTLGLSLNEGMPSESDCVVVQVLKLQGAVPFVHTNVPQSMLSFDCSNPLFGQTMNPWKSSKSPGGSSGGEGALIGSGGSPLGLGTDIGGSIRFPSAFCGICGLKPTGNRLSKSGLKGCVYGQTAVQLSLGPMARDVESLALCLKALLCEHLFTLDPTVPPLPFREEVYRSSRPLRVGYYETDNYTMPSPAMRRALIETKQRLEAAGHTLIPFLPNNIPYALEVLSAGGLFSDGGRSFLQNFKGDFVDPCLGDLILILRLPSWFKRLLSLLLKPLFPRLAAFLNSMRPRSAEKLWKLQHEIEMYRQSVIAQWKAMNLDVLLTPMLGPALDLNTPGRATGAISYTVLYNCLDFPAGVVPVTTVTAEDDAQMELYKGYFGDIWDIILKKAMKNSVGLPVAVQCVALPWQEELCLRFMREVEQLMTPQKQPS
The assay is described as follows: FAAH assay: [3H]AEA hydrolysis by rat brain homogenates. Conditions: for IC50: 0.5 µM [3H]AEA, rat brain homogenates. Format: biochemical.

Assay [3] has as its system CD1 male mice. Nature of the assay: Carrageenan-induced mechanical hyperalgesia (Randall-Selitto). Particulars: 10 mg/kg ip, 5 min after carrageenan. Format: in vivo. How it is done:
The behavioural experiments were performed on CD1 male mice (25–30 g Charles Rivers-Italy). They were housed in the animal care facility of the Department Experimental of Pharmacology, University of Naples. The animals were acclimated to their environment for 1 week and had ad libitum access to standard rodent chow pellets VRF1 (purchased from Special Diet Service-SDS). All behavioural tests were performed between 9:00 AM and 13:00 PM, and the animals were only used once. Procedures involving animals and their care were conducted in conformity with international and national law and policies (EU Directive 2010/63/EU for animal experiments). The procedures reported here were approved by the Institutional Committee on the Ethics of Animal Experiments (CSV) of the University of Naples “Federico II” and by the “Ministero della Salute”, protocol no. 2014–0084607. At the end of all experiments for all pain models, the animals were euthanized by CO2 overdose.
During this study, Flu-AM4 was administered systemically (intraperitoneally) and locally (intraplantar 100 microg/paw). […]
Paw withdrawal threshold (PWT) to mechanical pressure was measured with a Randall-Selitto Analgesy-Meter for mice (Ugo Basile, Italy). PWT was measured on the ispsilateral paw at 1, 2, 4, 6 and 48 h post carrageenan injection. […]

Assay [4] concerns iNOS. Nature of the assay: iNOS expression in the spinal cord of CCI-mice. The class given is in vivo. Particulars: 10 mg/kg ip, 1 h before.

Like-named read-outs stand apart in the source and are kept apart here.

The source of these data is paper PMC8079065, “Design, synthesis and in vitro and in vivo biological evaluation of flurbiprofen amides as new fatty acid amide hydrolase/cyclooxygenase-2 dual inhibitory potential analgesic agents” (Journal of Enzyme Inhibition and Medicinal Chemistry, 2021).

As usually defined, the Ki is a dissociation constant, usually derived from enzyme kinetics or from competition with a known ligand. Low values mean higher affinity, high ones lower affinity.

For `CC(C(=O)Nc1ncccc1Br)c1ccc(-c2ccccc2)c(F)c1` (centres unmarked) [Flu-AM4, N-(3-Bromopyridin-2-yl)-2-(2-fluoro-(1,1'-biphenyl)-4-yl)propanamide], the IC50 in assay [1] was 430 nM; in assay [2] (derived from pI50, read-out: IC50 for inhibition of rat brain AEA hydrolysis), 21 nM; in assay [2] (means ± s.e.m., n = 3–4, read-out: pI50 (-logIC50) for inhibition of rat brain AEA hydrolysis (converted)), 21.4 nM. The Ki in assay [2] (rat brain [3H]AEA hydrolysis, competitive model) was found to be 13 nM. Besides, in assay [2] (rat brain, IC50 compared with Flu-AM1), the “increase in FAAH inhibitory activity versus Flu-AM1” value is reported as “approximately 20 fold”. The “FAAH potency versus flurbiprofen” value in assay [2] (rat brain, IC50 compared with flurbiprofen) is “more than three orders of magnitude greater than flurbiprofen”. Besides, the “mode of FAAH inhibition (kinetics)” value in assay [2] (rat brain, best fit by Akaike's criteria) was “competitive inhibition”. Besides, in assay [2] (rat brain, preincubation and 20-fold dilution experiments), the “reversibility of FAAH inhibition” value was “reversible inhibitor”. In addition, in assay [2] (rat vs mouse brain), the “potency towards rat brain FAAH versus mouse brain FAAH” value is given as “an order of magnitude more potent towards rat brain FAAH than mouse brain FAAH”. Besides, the carrageenan-induced paw hyperalgesia result in assay [3] is “reduce hyperalgesia seen 2 h after carrageenan”. Besides, the “iNOS expression in the spinal cord” value in assay [4] was “significantly reduced this expression”.
